Measured values as given in ChEMBL document CHEMBL5370535, “Thiazolyl hydrazineylidenyl indolones as unique potential multitargeting broad-spectrum antimicrobial agents” (Eur J Med Chem, 2023).
In brackets after ≈: the same amount, converted by molar mass.

Legend:
Type in all cases: functional
Staphylococcus aureus [1] = assay: Antibacterial activity against methicillin-resistant Staphylococcus aureus assessed as bacterial growth inhibition incubated for 24 hrs by CLSI based two serial dilution assay
Enterococcus faecalis = assay: Antibacterial activity against Enterococcus faecalis assessed as bacterial growth inhibition incubated for 24 hrs by CLSI based two serial dilution assay
Staphylococcus aureus [2] = assay: Antibacterial activity against Staphylococcus aureus assessed as bacterial growth inhibition incubated for 24 hrs by CLSI based two serial dilution assay
Staphylococcus aureus [3] = assay: Antibacterial activity against Staphylococcus aureus 25923 assessed as bacterial growth inhibition incubated for 24 hrs by CLSI based two serial dilution assay
Staphylococcus aureus [4] = assay: Antibacterial activity against Staphylococcus aureus 29213 assessed as bacterial growth inhibition incubated for 24 hrs by CLSI based two serial dilution assay
Klebsiella pneumoniae = assay: Antibacterial activity against Klebsiella pneumoniae assessed as bacterial growth inhibition incubated for 24 hrs by CLSI based two serial dilution assay
Escherichia coli [5] = assay: Antibacterial activity against Escherichia coli assessed as bacterial growth inhibition incubated for 24 hrs by CLSI based two serial dilution assay
Escherichia coli [6] = assay: Antibacterial activity against Escherichia coli 25922 assessed as bacterial growth inhibition incubated for 24 hrs by CLSI based two serial dilution assay
Pseudomonas aeruginosa [7] = assay: Antibacterial activity against Pseudomonas aeruginosa assessed as bacterial growth inhibition incubated for 24 hrs by CLSI based two serial dilution assay
Pseudomonas aeruginosa [8] = assay: Antibacterial activity against Pseudomonas aeruginosa ATCC 27853 assessed as bacterial growth inhibition incubated for 24 hrs by CLSI based two serial dilution assay
Acinetobacter baumannii = assay: Antibacterial activity against Acinetobacter baumannii assessed as bacterial growth inhibition incubated for 24 hrs by CLSI based two serial dilution assay
Candida albicans [9] = assay: Antifungal activity against Candida albicans assessed as inhibition of fungal growth incubated for 24 hrs by CLSI based two serial dilution assay
Candida albicans [10] = assay: Antifungal activity against Candida albicans ATCC 90023 assessed as inhibition of fungal growth incubated for 24 hrs by CLSI based two serial dilution assay
Candida tropicalis = assay: Antifungal activity against Candida tropicalis assessed as inhibition of fungal growth incubated for 24 hrs by CLSI based two serial dilution assay
Candida parapsilosis = assay: Antifungal activity against Candida parapsilosis ATCC 22019 assessed as inhibition of fungal growth incubated for 24 hrs by CLSI based two serial dilution assay; settings: Lodderomyces parapsilosis
Aspergillus fumigatus = assay: Antifungal activity against Aspergillus fumigatus assessed as inhibition of fungal growth incubated for 24 hrs by CLSI based two serial dilution assay

| SMILES | MIC (Staphylococcus aureus [1]) [µM] | MIC (Enterococcus faecalis) [µM] | MIC (Staphylococcus aureus [2]) [µM] | MIC (Staphylococcus aureus [3]) [µM] | MIC (Staphylococcus aureus [4]) [µM] | MIC (Klebsiella pneumoniae) [µM] | MIC (Escherichia coli [5]) [µM] | MIC (Escherichia coli [6]) [µM] | MIC (Pseudomonas aeruginosa [7]) [µM] | MIC (Pseudomonas aeruginosa [8]) [µM] | MIC (Acinetobacter baumannii) [µM] | MIC (Candida albicans [9]) [µM] | MIC (Candida albicans [10]) [µM] | MIC (Candida tropicalis) [µM] | MIC (Candida parapsilosis) [µM] | MIC (Aspergillus fumigatus) [µM] |
| --- | --- | --- | --- | --- | --- | --- | --- | --- | --- | --- | --- | --- | --- | --- | --- | --- |
| O=C1Nc2ccccc2/C1=N/Nc1nccs1 | 128 (≈ 31.3 µg/mL) | 128 (≈ 31.3 µg/mL) | 512 (≈ 125 µg/mL) | 128 (≈ 31.3 µg/mL) | 128 (≈ 31.3 µg/mL) | 512 (≈ 125 µg/mL) | 256 (≈ 62.5 µg/mL) | 128 (≈ 31.3 µg/mL) | 512 (≈ 125 µg/mL) | 128 (≈ 31.3 µg/mL) | 64 (≈ 15.6 µg/mL) | 256 (≈ 62.5 µg/mL) | 128 (≈ 31.3 µg/mL) | 256 (≈ 62.5 µg/mL) | 64 (≈ 15.6 µg/mL) | 32 (≈ 7.82 µg/mL) |
| CCCCN1C(=O)/C(=N\Nc2nccs2)c2ccc(Cl)cc21 | 0.5 (≈ 0.167 µg/mL) | 2 (≈ 0.67 µg/mL) | 1 (≈ 0.335 µg/mL) | 0.5 (≈ 0.167 µg/mL) | 4 (≈ 1.34 µg/mL) | 0.5 (≈ 0.167 µg/mL) | 1 (≈ 0.335 µg/mL) | 4 (≈ 1.34 µg/mL) | 0.5 (≈ 0.167 µg/mL) | 4 (≈ 1.34 µg/mL) | 0.5 (≈ 0.167 µg/mL) | 0.5 (≈ 0.167 µg/mL) | 2 (≈ 0.67 µg/mL) | 1 (≈ 0.335 µg/mL) | 0.5 (≈ 0.167 µg/mL) | 1 (≈ 0.335 µg/mL) |
| CCCCN1C(=O)/C(=N\Nc2nccs2)c2cc(OC)ccc21 | 8 (≈ 2.64 µg/mL) | 4 (≈ 1.32 µg/mL) | 32 (≈ 10.6 µg/mL) | 16 (≈ 5.29 µg/mL) | 16 (≈ 5.29 µg/mL) | 128 (≈ 42.3 µg/mL) | 16 (≈ 5.29 µg/mL) | 4 (≈ 1.32 µg/mL) | 4 (≈ 1.32 µg/mL) | 32 (≈ 10.6 µg/mL) | 16 (≈ 5.29 µg/mL) | 64 (≈ 21.1 µg/mL) | 32 (≈ 10.6 µg/mL) | 128 (≈ 42.3 µg/mL) | 16 (≈ 5.29 µg/mL) | 32 (≈ 10.6 µg/mL) |
| O=C1/C(=N\Nc2nccs2)c2ccccc2N1Cc1ccccc1F | 8 (≈ 2.82 µg/mL) | 8 (≈ 2.82 µg/mL) | 4 (≈ 1.41 µg/mL) | 4 (≈ 1.41 µg/mL) | 256 (≈ 90.2 µg/mL) | 512 (≈ 180 µg/mL) | 512 (≈ 180 µg/mL) | 256 (≈ 90.2 µg/mL) | 256 (≈ 90.2 µg/mL) | 512 (≈ 180 µg/mL) | 512 (≈ 180 µg/mL) | 64 (≈ 22.6 µg/mL) | 128 (≈ 45.1 µg/mL) | 16 (≈ 5.64 µg/mL) | 128 (≈ 45.1 µg/mL) | 128 (≈ 45.1 µg/mL) |
| CCCCCCCCCCCCN1C(=O)/C(=N\Nc2nccs2)c2ccccc21 | 128 (≈ 52.8 µg/mL) | 4 (≈ 1.65 µg/mL) | 32 (≈ 13.2 µg/mL) | 4 (≈ 1.65 µg/mL) | 4 (≈ 1.65 µg/mL) | 32 (≈ 13.2 µg/mL) | 64 (≈ 26.4 µg/mL) | 32 (≈ 13.2 µg/mL) | 16 (≈ 6.6 µg/mL) | 16 (≈ 6.6 µg/mL) | 64 (≈ 26.4 µg/mL) | 32 (≈ 13.2 µg/mL) | 128 (≈ 52.8 µg/mL) | 16 (≈ 6.6 µg/mL) | 64 (≈ 26.4 µg/mL) | 32 (≈ 13.2 µg/mL) |
| CCN1C(=O)/C(=N\Nc2nccs2)c2ccccc21 | 32 (≈ 8.71 µg/mL) | 32 (≈ 8.71 µg/mL) | 64 (≈ 17.4 µg/mL) | 64 (≈ 17.4 µg/mL) | 16 (≈ 4.36 µg/mL) | 64 (≈ 17.4 µg/mL) | 32 (≈ 8.71 µg/mL) | 64 (≈ 17.4 µg/mL) | 2 (≈ 0.545 µg/mL) | 512 (≈ 139 µg/mL) | 512 (≈ 139 µg/mL) | 64 (≈ 17.4 µg/mL) | 128 (≈ 34.9 µg/mL) | 64 (≈ 17.4 µg/mL) | 64 (≈ 17.4 µg/mL) | 32 (≈ 8.71 µg/mL) |
| O=C(N[C@H](CO)[C@H](O)c1ccc([N+](=O)[O-])cc1)C(Cl)Cl [CHLORAMPHENICOL] | 16 (≈ 5.17 µg/mL) | 8 (≈ 2.59 µg/mL) | 8 (≈ 2.59 µg/mL) | 8 (≈ 2.59 µg/mL) | 4 (≈ 1.29 µg/mL) | 8 (≈ 2.59 µg/mL) | 32 (≈ 10.3 µg/mL) | 16 (≈ 5.17 µg/mL) | 32 (≈ 10.3 µg/mL) | 8 (≈ 2.59 µg/mL) | 16 (≈ 5.17 µg/mL) | – | – | – | – | – |
| OC(Cn1cncn1)(Cn1cncn1)c1ccc(F)cc1F [FLUCONAZOLE] | – | – | – | – | – | – | – | – | – | – | – | 4 (≈ 1.23 µg/mL) | 2 (≈ 0.613 µg/mL) | 8 (≈ 2.45 µg/mL) | 4 (≈ 1.23 µg/mL) | 256 (≈ 78.4 µg/mL) |
| O=C1/C(=N\Nc2nccs2)c2ccccc2N1Cc1ccc(Cl)cc1 | 64 (≈ 23.6 µg/mL) | 64 (≈ 23.6 µg/mL) | 4 (≈ 1.48 µg/mL) | 4 (≈ 1.48 µg/mL) | 4 (≈ 1.48 µg/mL) | 32 (≈ 11.8 µg/mL) | 128 (≈ 47.2 µg/mL) | 32 (≈ 11.8 µg/mL) | 16 (≈ 5.9 µg/mL) | 128 (≈ 47.2 µg/mL) | 64 (≈ 23.6 µg/mL) | 16 (≈ 5.9 µg/mL) | 32 (≈ 11.8 µg/mL) | 16 (≈ 5.9 µg/mL) | 4 (≈ 1.48 µg/mL) | 16 (≈ 5.9 µg/mL) |
| O=C1/C(=N\Nc2nccs2)c2ccccc2N1Cc1ccc(F)cc1 | 128 (≈ 45.1 µg/mL) | 2 (≈ 0.705 µg/mL) | 64 (≈ 22.6 µg/mL) | 4 (≈ 1.41 µg/mL) | 4 (≈ 1.41 µg/mL) | 16 (≈ 5.64 µg/mL) | 16 (≈ 5.64 µg/mL) | 16 (≈ 5.64 µg/mL) | 16 (≈ 5.64 µg/mL) | 4 (≈ 1.41 µg/mL) | 16 (≈ 5.64 µg/mL) | 32 (≈ 11.3 µg/mL) | 128 (≈ 45.1 µg/mL) | 32 (≈ 11.3 µg/mL) | 64 (≈ 22.6 µg/mL) | 128 (≈ 45.1 µg/mL) |
